Source: patent US5466671A, “Apidaecin-type peptide antibiotics with improved activities and/or different antibacterial spectrum” (priority 1994, dated 1995)
Residues, ends and D or L forms follow the SMILES beside them.

Tests used:
Rhizobium meliloti = experiment: Inhibition zone assay (agar plate); type: cell-based; conditions: 50 nanomoles/well, 3 mm wells
[1] = test system: Agrobacterium tumefaciens; experiment: Inhibition zone assay (agar plate); type: cell-based; conditions: agar plate, 50 nanomoles/well, 3 mm wells
Y. enterocolitica = experiment: Minimal inhibitory concentration (liquid culture); conditions: inoculum 5000 CFU/ml; a-b = highest concentration with growth - lowest without growth
E. coli 11775 = experiment: Minimal inhibitory concentration (liquid culture); conditions: for minimal inhibitory concentration (MIC): a-b = highest concentration with growth - lowest without growth
Haemophilus influenzae = experiment: Inhibition zone assay (agar plate); type: cell-based; conditions: 50 nanomoles/well, 3 mm wells
Salmonella typhimurium = experiment: Inhibition zone assay (agar plate); type: cell-based; conditions: agar plate, 50 nanomoles/well, 3 mm wells
Campylobacter jejuni = experiment: Inhibition zone assay (agar plate); type: cell-based; conditions: 50 nanomoles/well, 3 mm wells
Legionella pneumophila = type: cell-based; conditions: agar plate, 50 nanomoles/well, 3 mm wells
M. morganii = experiment: Minimal inhibitory concentration (liquid culture); conditions: inoculum 400 CFU/ml; a-b = highest concentration with growth - lowest without growth
E. coli 25922 = experiment: Minimal inhibitory concentration (liquid culture); conditions: inoculum 1100 CFU/ml; a-b = highest concentration with growth - lowest without growth
Enterobacter cloacae = experiment: Inhibition zone assay (agar plate); type: cell-based; conditions: agar plate, 50 nanomoles/well, 3 mm wells
[2] = test system: Escherichia coli (11775 Apid R); type: cell-based; conditions: agar plate, 50 nanomoles/well, 3 mm wells
[3] = test system: Escherichia coli (ATCC11775); experiment: Inhibition zone assay (agar plate); type: cell-based; conditions: agar plate, 50 nanomoles/well, 3 mm wells
Erwinia amylovora = experiment: Inhibition zone assay (agar plate); type: cell-based; conditions: agar plate, 50 nanomoles/well, 3 mm wells
Pseudomonas syringae = experiment: Inhibition zone assay (agar plate); type: cell-based; conditions: agar plate, 50 nanomoles/well, 3 mm wells
Escherichia coli (K514) = type: cell-based; conditions: agar plate, 50 nanomoles/well, 3 mm wells
E. coli 23802 = experiment: Minimal inhibitory concentration (liquid culture); conditions: inoculum 5000 CFU/ml; a-b = highest concentration with growth - lowest without growth
Morganella morganii = experiment: Inhibition zone assay (agar plate); type: cell-based; conditions: 50 nanomoles/well, 3 mm wells
[4] = test system: Acinetobacter calcoaceticus; experiment: Inhibition zone assay (agar plate); type: cell-based; conditions: agar plate, 50 nanomoles/well, 3 mm wells
Klebsiella pneumoniae = experiment: Inhibition zone assay (agar plate); type: cell-based; conditions: agar plate, 50 nanomoles/well, 3 mm wells
A. calcoaceticus = experiment: Minimal inhibitory concentration (liquid culture); conditions: inoculum 16 × 10^6 CFU/ml; a-b = highest concentration with growth - lowest without growth
S. typhimurium = experiment: Minimal inhibitory concentration (liquid culture); conditions: inoculum 8 × 10^6 CFU/ml; a-b = highest concentration with growth - lowest without growth
Shigella dysenteriae = type: cell-based; conditions: agar plate, 50 nanomoles/well, 3 mm wells
E. coli Apid^R = experiment: Minimal inhibitory concentration (liquid culture); type: cell-based; conditions: a-b = highest concentration with growth - lowest without growth
Text: For details see `Experimental Procedures`.

Salmonella typhi = type: cell-based; conditions: agar plate, 50 nanomoles/well, 3 mm wells

Row | Structure (SMILES) | inhibition zone diameter (number of plus signs) (Rhizobium meliloti) | inhibition zone diameter (number of plus signs) [1] | minimal inhibitory concentration (MIC) (Y. enterocolitica) [µg/mL] | minimal inhibitory concentration (MIC) (E. coli 11775; inoculum 16 × 10^6 CFU/ml) [µg/mL] | minimal inhibitory concentration (MIC) (E. coli 11775; inoculum 1200 CFU/ml) [µg/mL] | inhibition zone diameter (number of plus signs) (Haemophilus influenzae) | inhibition zone diameter (number of plus signs) (Salmonella typhimurium) | inhibition zone diameter (number of plus signs) (Campylobacter jejuni) | inhibition zone diameter (number of plus signs) (Legionella pneumophila) | minimal inhibitory concentration (MIC) (M. morganii) [µg/mL] | minimal inhibitory concentration (MIC) (E. coli 25922) [µg/mL] | inhibition zone diameter (number of plus signs) (Enterobacter cloacae) | inhibition zone diameter (number of plus signs) [2] | inhibition zone diameter (number of plus signs) [3] | inhibition zone diameter (number of plus signs) (Erwinia amylovora) | inhibition zone diameter (number of plus signs) (Pseudomonas syringae) | inhibition zone diameter (number of plus signs) (Escherichia coli (K514)) | minimal inhibitory concentration (MIC) (E. coli 23802) [µg/mL] | inhibition zone diameter (number of plus signs) (Morganella morganii) | inhibition zone diameter (number of plus signs) [4] | also measured
1 | CC[C@H](C)[C@H](NC(=O)[C@@H]1CCCN1C(=O)[C@H](C)NC(=O)[C@@H]1CCCN1C(=O)[C@H](CCCNC(=N)N)NC(=O)[C@@H]1CCCN1C(=O)[C@H](CCCNC(=N)N)NC(=O)[C@H](CC(N)=O)NC(=O)[C@@H]1CCCN1C(=O)[C@H](CCCCN)NC(=O)CN)C(=O)N[C@@H](CCC(N)=O)C(=O)N1CCC[C@H]1C(=O)N[C@@H](CCCNC(=N)N)C(=O)N1CCC[C@H]1C(=O)N1CCC[C@H]1C(=O)N[C@@H](Cc1c[nH]cn1)C(=O)N1CCC[C@H]1C(=O)N[C@@H](CCCNC(=N)N)C(=O)N[C@@H](CC(C)C)C(=O)O [Cd 1+, Gly--Lys--Pro--Asn--Arg--Pro--Arg--Pro--Ala--Pro--Ile--Gln--Pro--Arg--Pro--Pro--His--Pro--Arg--Leu] (H-GKPNRPRPAPIQPRPPHPRL-OH) | ++++ ((++++) 15-19 mm) | ++++ ((++++) 15-19 mm) | 20 to 40 | > 20 | 10 to 20 | ++++ ((++++) 15-19 mm) | ++ ((++) 7-9 mm) | +++ ((+++) 10-14 mm) | ++ ((++) 7-9 mm) | 10 to 20 | 10 to 20 | +++ ((+++) 10-14 mm) | ++ ((++) 7-9 mm) | ++ ((++) 7-9 mm) | ++ ((++) 7-9 mm) | ++++ ((++++) 15-19 mm) | ++ ((++) 7-9 mm) | 10 to 20 | ++ ((++) 7-9 mm) | ++ ((++) 7-9 mm) | inhibition zone diameter (number of plus signs) (Klebsiella pneumoniae): ++ ((++) 7-9 mm); minimal inhibitory concentration (MIC) (A. calcoaceticus): > 20 µg/mL; minimal inhibitory concentration (MIC) (S. typhimurium): 10 to 20 µg/mL
2 | CC[C@H](C)[C@H](NC(=O)[C@@H]1CCCN1C(=O)[C@H](C)NC(=O)[C@@H]1CCCN1C(=O)[C@H](CCCNC(=N)N)NC(=O)[C@@H]1CCCN1C(=O)[C@H](CCCCN)NC(=O)[C@@H](N)CO)C(=O)N[C@@H](CCCCN)C(=O)N1CCC[C@H]1C(=O)N[C@@H](CCCNC(=N)N)C(=O)N1CCC[C@H]1C(=O)N1CCC[C@H]1C(=O)N[C@@H](Cc1c[nH]cn1)C(=O)N1CCC[C@H]1C(=O)N[C@@H](CCCNC(=N)N)C(=O)N[C@@H](CC(C)C)C(=O)O [Cd 3-, Ser--Lys--Pro--Arg--Pro--Ala--Pro--Ile--Lys--Pro--Arg--Pro--Pro--His--Pro--Arg--Leu] (H-SKPRPAPIKPRPPHPRL-OH) | ++++ ((++++) 15-19 mm) | ++ ((++) 7-9 mm) | 20 to 40 | 0.5 to 1 | 0.1 to 0.5 | +++ ((+++) 10-14 mm) | ++ ((++) 7-9 mm) | ++++ ((++++) 15-19 mm) | ++ ((++) 7-9 mm) | 1 to 5 | 0.5 to 1 | +++ ((+++) 10-14 mm) | ++ ((++) 7-9 mm) | ++ ((++) 7-9 mm) | + ((+) 5-6 mm) | ++ ((++) 7-9 mm) | + ((+) 5-6 mm) | 5 to 10 | ++ ((++) 7-9 mm) | + ((+) 5-6 mm) | inhibition zone diameter (number of plus signs) (Shigella dysenteriae): ++ ((++) 7-9 mm); minimal inhibitory concentration (MIC) (E. coli Apid^R; inoculum 12 × 10^6 CFU/ml): 5 to 10 µg/mL; minimal inhibitory concentration (MIC) (E. coli Apid^R; inoculum 1000 CFU/ml): 5 to 10 µg/mL; inhibition zone diameter (number of plus signs) (Klebsiella pneumoniae): ++ ((++) 7-9 mm); minimal inhibitory concentration (MIC) (A. calcoaceticus): 10 to 20 µg/mL; minimal inhibitory concentration (MIC) (S. typhimurium): 1 to 5 µg/mL
3 | CC[C@H](C)[C@H](NC(=O)[C@@H]1CCCN1C(=O)[C@H](C)NC(=O)[C@@H]1CCCN1C(=O)[C@H](CCCNC(=N)N)NC(=O)[C@@H]1CCCN1C(=O)[C@H](CCCCN)NC(=O)[C@H](CO)NC(=O)[C@@H]1CCCN1C(=O)[C@H](CCCCN)NC(=O)CN)C(=O)N[C@@H](CCCCN)C(=O)N1CCC[C@H]1C(=O)N[C@@H](CCCNC(=N)N)C(=O)N1CCC[C@H]1C(=O)N1CCC[C@H]1C(=O)N[C@@H](Cc1c[nH]cn1)C(=O)N1CCC[C@H]1C(=O)N[C@@H](CCCNC(=N)N)C(=O)N[C@@H](CC(C)C)C(=O)O [Cd 3+, Gly--Lys--Pro--Ser--Lys--Pro--Arg--Pro--Ala--Pro--Ile--Lys--Pro--Arg--Pro--Pro--His--Pro--Arg--Leu] (H-GKPSKPRPAPIKPRPPHPRL-OH) | +++ ((+++) 10-14 mm) | +++ ((+++) 10-14 mm) | 10 to 20 | 0.1 to 0.5 | 0.1 to 0.5 | ++++ ((++++) 15-19 mm) | ++ ((++) 7-9 mm) | +++++ ((+++++) 20 or more min) | ++ ((++) 7-9 mm) | 1 to 5 | 0.1 to 0.5 | +++ ((+++) 10-14 mm) | ++ ((++) 7-9 mm) | ++ ((++) 7-9 mm) | + ((+) 5-6 mm) | ++ ((++) 7-9 mm) | + ((+) 5-6 mm) | 0.1 to 0.5 | ++ ((++) 7-9 mm) | + ((+) 5-6 mm) | inoculum effect on inhibition of viability (E. coli 11775; inoculum sizes differing by four orders of magnitude): equally well; inhibition zone diameter (number of plus signs) (Salmonella typhi): ++ ((++) 7-9 mm); minimal inhibitory concentration (MIC) (E. coli Apid^R; inoculum 12 × 10^6 CFU/ml): 0.5 to 1.5 µg/mL; minimal inhibitory concentration (MIC) (E. coli Apid^R; inoculum 12 × 10^6 CFU/ml, listed as Cd3+): measurable activities; minimal inhibitory concentration (MIC) (E. coli Apid^R; inoculum 1000 CFU/ml): 0.5 to 1 µg/mL; inhibition zone diameter (number of plus signs) (Klebsiella pneumoniae): ++ ((++) 7-9 mm); minimal inhibitory concentration (MIC) (A. calcoaceticus): 10 to 20 µg/mL; minimal inhibitory concentration (MIC) (S. typhimurium): 0.1 to 0.5 µg/mL
